From article PMC4822313, “Modulating the import of medium-chain alkanes in E. coli through tuned expression of FadL” (Journal of Biological Engineering, 2016)

Target: T1, AlkBGT alkane monooxygenase complex (Ectopseudomonas oleovorans, UniProt P12691)
T1 construct: gene alkB; inner membrane AlkB with rubredoxin AlkG and reductase AlkT; expressed in E. coli from pGEc41; with Rubredoxin-2; Rubredoxin-NAD(+) reductase
T1 sequence (P12691 1-401): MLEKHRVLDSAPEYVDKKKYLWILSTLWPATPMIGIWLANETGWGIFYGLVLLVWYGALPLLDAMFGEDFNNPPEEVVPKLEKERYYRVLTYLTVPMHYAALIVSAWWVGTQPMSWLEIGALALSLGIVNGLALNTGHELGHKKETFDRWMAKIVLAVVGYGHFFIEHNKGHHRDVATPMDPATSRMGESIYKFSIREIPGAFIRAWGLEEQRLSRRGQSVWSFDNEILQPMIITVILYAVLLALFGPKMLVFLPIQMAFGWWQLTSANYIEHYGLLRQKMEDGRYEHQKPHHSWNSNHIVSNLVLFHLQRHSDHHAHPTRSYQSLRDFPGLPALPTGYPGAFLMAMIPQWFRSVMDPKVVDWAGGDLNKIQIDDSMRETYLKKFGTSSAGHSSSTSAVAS
Assay: whole-cell oxidation, GC-FID of products
Assay type: cell-based
Conditions: 30 % (v/v) octane, 37 °C, E. coli with pGEc41

## CCCCCCCCO [1-octanol]
  whole-cell oxidation, GC-FID of products: The synthesis of 1-octanol and 1-octanal is attributed to AlkB
